For data set [1], the target named is T1, α2δ-subunit of a calcium channel (Sus scrofa, UniProt A0A287BIN3).
T1 construct: the α2δ-subunit derived from porcine brain tissue was used; from tissue; host or cells: porcine brain tissue
Description: radioligand binding assay using [3H]-gabapentin. The following applies: α2δ-subunit derived from porcine brain tissue. The text has this: The ability of compounds of the present invention to bind to the α2δ-subunit of a calcium channel can be determined using the following binding assay.
The radioligand binding assay using [^3H]-gabapentin and the α2δ-subunit derived from porcine brain tissue was used (See, Gee, Nicolas S et al. “The novel anticonvulsant drug, gabapentin (Neurontin), binds to the α2δ subunit of a calcium channel”. J. Biol. Chem. (1996), 271 (10), 5768–76). Compounds of the invention bind with nanomolar to micromolar affinity for the α2δ protein.

Where a name gives a salt, the structure may show the parent alone.

T1 sequence (A0A287BIN3 25-1109): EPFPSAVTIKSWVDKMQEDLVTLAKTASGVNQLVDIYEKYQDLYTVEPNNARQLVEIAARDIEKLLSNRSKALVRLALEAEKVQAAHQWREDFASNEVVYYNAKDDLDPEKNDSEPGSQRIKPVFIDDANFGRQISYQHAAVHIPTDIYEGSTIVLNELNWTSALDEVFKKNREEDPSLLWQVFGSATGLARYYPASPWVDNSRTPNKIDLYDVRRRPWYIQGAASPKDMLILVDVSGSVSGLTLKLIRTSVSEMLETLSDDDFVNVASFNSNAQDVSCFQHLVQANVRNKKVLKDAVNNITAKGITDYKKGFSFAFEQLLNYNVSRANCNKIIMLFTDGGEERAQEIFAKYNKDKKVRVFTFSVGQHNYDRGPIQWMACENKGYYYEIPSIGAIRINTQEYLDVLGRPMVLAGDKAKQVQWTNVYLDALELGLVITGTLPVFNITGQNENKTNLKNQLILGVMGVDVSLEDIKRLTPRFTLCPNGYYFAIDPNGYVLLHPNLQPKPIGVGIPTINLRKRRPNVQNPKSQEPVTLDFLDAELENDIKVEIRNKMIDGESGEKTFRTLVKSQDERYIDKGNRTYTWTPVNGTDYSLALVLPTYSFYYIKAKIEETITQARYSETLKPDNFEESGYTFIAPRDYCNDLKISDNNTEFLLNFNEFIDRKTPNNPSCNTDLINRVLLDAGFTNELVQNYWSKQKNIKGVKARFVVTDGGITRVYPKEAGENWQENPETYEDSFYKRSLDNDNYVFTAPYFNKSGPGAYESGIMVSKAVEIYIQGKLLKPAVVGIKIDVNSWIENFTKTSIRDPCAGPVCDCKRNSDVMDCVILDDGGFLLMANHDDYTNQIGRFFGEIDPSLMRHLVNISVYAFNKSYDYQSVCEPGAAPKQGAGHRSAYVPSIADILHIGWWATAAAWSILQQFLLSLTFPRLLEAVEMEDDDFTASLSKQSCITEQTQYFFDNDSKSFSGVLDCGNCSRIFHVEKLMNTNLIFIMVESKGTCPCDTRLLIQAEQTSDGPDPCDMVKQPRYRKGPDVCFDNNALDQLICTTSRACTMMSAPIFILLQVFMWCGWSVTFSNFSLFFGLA

Regarding `CCC[C@@H](C)C[C@H](CN)C(=O)O` [(2R,4R)-2-Aminomethyl-4-methyl-heptanoic Acid], the “affinity to the α2δ protein” value in data set [1] came out at 29 nM.

`CCCC(C)(C)C[C@H](N)CC(=O)O` (as salt: hydrochloride) yielded a melting point of 194.2 to 195.2 °C.

`CCC[C@@H](C)C[C@H](CN)C(=O)O` (as salt: hydrochloride) [(2R,4R)-2-Aminomethyl-4-methyl-heptanoic Acid] showed a melting point of 226.3 to 228 °C.

As to `CCCC[C@@H](C)C[C@H](N)CC(=O)O` (as salt: hydrochloride), the melting point is 142.5 to 143.3 °C.

Compound `CCC[C@@H](C)C[C@H](N)CC(=O)O.Cl` came in with a melting point of 142.5 to 142.7 °C.

The compound `CCCC(C)(C)CC(CN)C(=O)O.Cl` (stereo not drawn) [2-Aminomethyl-4,4-dimethyl-heptanoic Acid Hydrochloride] had a melting point of 229.5 to 231 °C. Besides, the “affinity to the α2δ protein” value in data set [1] is on record as 83 nM.

Take `CC(C)CCCC(C)C[C@@H](N)CC(=O)O` (stereo partly drawn) [R-3-amino-5,9-dimethyl-decanoic acid]: the “affinity to the α2δ protein” value in data set [1] stood at 527 nM.

Turning to `CCC[C@H](C)C[C@H](N)CC(=O)O` [(3S,5S)-3-amino-5-methyl-octanoic acid], in data set [1], the “affinity to the α2δ protein” value is 1000 nM.

Broadly, the melting point is the temperature of the solid-liquid transition.

These data come from patent US7112610B2, “Methods for using amino acids with affinity for the α2δ-protein” (Warner-Lambert Company LLC, priority 2003, dated 2006).
